Assay results from US20250339399A1, “SUPRAMOLECULAR SELF-ASSEMBLY SYSTEM” (Beijing Creatron Institute of Pharmaceutical Research Co., …, priority 2022, published 2025).

Assay: not given
Conditions: cited from earlier work

Structure (SMILES) | LogD7.4 or Log P
O=C(O)[C@H]1O[C@@H](Oc2cc3oc(-c4ccc(O)cc4)cc(=O)c3c(O)c2O)[C@H](O)[C@@H](O)[C@@H]1O [Scutellarin, scutellarin] | 0.80
CC(C)OC(=O)CCC/C=C\C[C@@H]1[C@@H](/C=C/C(F)(F)COc2ccccc2)[C@H](O)C[C@@H]1O [Tafluprost, tafluprost] | 4.25

Same assay, conditions: prost derivatives, Table 31 (relevant information); cited from earlier work

Structure (SMILES) | Log P
CC(C)OC(=O)CCC/C=C\C[C@@H]1[C@@H](/C=C/C(F)(F)COc2ccccc2)[C@H](O)C[C@@H]1O [Tafluprost, tafluprost] | Log P:4.29 D-H: 2 R-H:4

Assay: Guest molecule concentration after incubation in initial medium without polymer (Comparative Example 1)
Format: physicochemical
Conditions: 0.5 h; 37° C.; pH 6.8 phosphate buffer
How it was run: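 Dissolved guest content measured by HPLC of centrifuged supernatants (37° C., 13000 rpm, 5 min) sampled at 0.5 h, 3 h and 6 h. Incubation was polymer-free at 37° C.±0.5° C. in buffers of pH 2.0-7.4; nominal loading was set by maximum clinical dose.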

Structure (SMILES) | Concentration of guest molecule measured after different incubated time
O=C(O)[C@H]1O[C@@H](Oc2cc3oc(-c4ccc(O)cc4)cc(=O)c3c(O)c2O)[C@H](O)[C@@H](O)[C@@H]1O [Scutellarin, scutellarin] | 45300 ng/mL

Same assay, conditions: 0.5 h; 37° C.; pH 7.4 phosphate buffer

Concentration of guest molecule measured after different incubated time | Structure (SMILES)
18600 ng/mL | CC(C)OC(=O)CCC/C=C\C[C@@H]1[C@@H](/C=C/C(F)(F)COc2ccccc2)[C@H](O)C[C@@H]1O [Tafluprost, tafluprost]

Same assay, conditions: 3 h; 37° C.; pH 6.8 phosphate buffer

Structure (SMILES) | Concentration of guest molecule measured after different incubated time
O=C(O)[C@H]1O[C@@H](Oc2cc3oc(-c4ccc(O)cc4)cc(=O)c3c(O)c2O)[C@H](O)[C@@H](O)[C@@H]1O [Scutellarin, scutellarin] | 41700 ng/mL

Same assay, conditions: 3 h; 37° C.; pH 7.4 phosphate buffer

Concentration of guest molecule measured after different incubated time | Structure (SMILES)
9300 ng/mL | CC(C)OC(=O)CCC/C=C\C[C@@H]1[C@@H](/C=C/C(F)(F)COc2ccccc2)[C@H](O)C[C@@H]1O [Tafluprost, tafluprost]

Same assay, conditions: 6 h; 37° C.; pH 6.8 phosphate buffer

Structure (SMILES) | Concentration of guest molecule measured after different incubated time
O=C(O)[C@H]1O[C@@H](Oc2cc3oc(-c4ccc(O)cc4)cc(=O)c3c(O)c2O)[C@H](O)[C@@H](O)[C@@H]1O [Scutellarin, scutellarin] | 43100 ng/mL

Same assay, conditions: 6 h; 37° C.; pH 7.4 phosphate buffer

Concentration of guest molecule measured after different incubated time | Structure (SMILES)
6800 ng/mL | CC(C)OC(=O)CCC/C=C\C[C@@H]1[C@@H](/C=C/C(F)(F)COc2ccccc2)[C@H](O)C[C@@H]1O [Tafluprost, tafluprost]

Assay: Binary supramolecular self-assembly systems of polymer and target: guest concentration over incubation time (Comparative Example 2)
Format: physicochemical
Conditions: binary system with 0.5% polymer 101; incubation 0.5 h
Description: Experiments were conducted according to the steps in Comparative Example 1, and quantitative analysis was carried out using the analytical method for each target to investigate the regulation ability […] stacking.

Structure (SMILES) | Concentration of the target in the solution measured after different incubation time
O=C(O)[C@H]1O[C@@H](Oc2cc3oc(-c4ccc(O)cc4)cc(=O)c3c(O)c2O)[C@H](O)[C@@H](O)[C@@H]1O [Scutellarin, scutellarin] | 210400 ng/mL
CC(C)OC(=O)CCC/C=C\C[C@@H]1[C@@H](/C=C/C(F)(F)COc2ccccc2)[C@H](O)C[C@@H]1O [Tafluprost, tafluprost] | 57600 ng/mL

Same assay, conditions: binary system with 0.5% polymer 101; incubation 3 h

Structure (SMILES) | Concentration of the target in the solution measured after different incubation time
O=C(O)[C@H]1O[C@@H](Oc2cc3oc(-c4ccc(O)cc4)cc(=O)c3c(O)c2O)[C@H](O)[C@@H](O)[C@@H]1O [Scutellarin, scutellarin] | 125200 ng/mL
CC(C)OC(=O)CCC/C=C\C[C@@H]1[C@@H](/C=C/C(F)(F)COc2ccccc2)[C@H](O)C[C@@H]1O [Tafluprost, tafluprost] | 44800 ng/mL

Same assay, conditions: binary system with 0.5% polymer 101; incubation 6 h

Structure (SMILES) | Concentration of the target in the solution measured after different incubation time
O=C(O)[C@H]1O[C@@H](Oc2cc3oc(-c4ccc(O)cc4)cc(=O)c3c(O)c2O)[C@H](O)[C@@H](O)[C@@H]1O [Scutellarin, scutellarin] | 110200 ng/mL
CC(C)OC(=O)CCC/C=C\C[C@@H]1[C@@H](/C=C/C(F)(F)COc2ccccc2)[C@H](O)C[C@@H]1O [Tafluprost, tafluprost] | 23100 ng/mL

Same assay, conditions: binary system with 0.5% polymer 102; incubation 0.5 h

Structure (SMILES) | Concentration of the target in the solution measured after different incubation time
O=C(O)[C@H]1O[C@@H](Oc2cc3oc(-c4ccc(O)cc4)cc(=O)c3c(O)c2O)[C@H](O)[C@@H](O)[C@@H]1O [Scutellarin, scutellarin] | 122500 ng/mL
CC(C)OC(=O)CCC/C=C\C[C@@H]1[C@@H](/C=C/C(F)(F)COc2ccccc2)[C@H](O)C[C@@H]1O [Tafluprost, tafluprost] | 52900 ng/mL

Same assay, conditions: binary system with 0.5% polymer 102; incubation 3 h

Structure (SMILES) | Concentration of the target in the solution measured after different incubation time
O=C(O)[C@H]1O[C@@H](Oc2cc3oc(-c4ccc(O)cc4)cc(=O)c3c(O)c2O)[C@H](O)[C@@H](O)[C@@H]1O [Scutellarin, scutellarin] | 102000 ng/mL
CC(C)OC(=O)CCC/C=C\C[C@@H]1[C@@H](/C=C/C(F)(F)COc2ccccc2)[C@H](O)C[C@@H]1O [Tafluprost, tafluprost] | 66100 ng/mL

Same assay, conditions: binary system with 0.5% polymer 102; incubation 6 h

Structure (SMILES) | Concentration of the target in the solution measured after different incubation time
O=C(O)[C@H]1O[C@@H](Oc2cc3oc(-c4ccc(O)cc4)cc(=O)c3c(O)c2O)[C@H](O)[C@@H](O)[C@@H]1O [Scutellarin, scutellarin] | 102200 ng/mL
CC(C)OC(=O)CCC/C=C\C[C@@H]1[C@@H](/C=C/C(F)(F)COc2ccccc2)[C@H](O)C[C@@H]1O [Tafluprost, tafluprost] | 67300 ng/mL

Same assay, conditions: binary system with 0.5% polymer 103; incubation 0.5 h

Structure (SMILES) | Concentration of the target in the solution measured after different incubation time
O=C(O)[C@H]1O[C@@H](Oc2cc3oc(-c4ccc(O)cc4)cc(=O)c3c(O)c2O)[C@H](O)[C@@H](O)[C@@H]1O [Scutellarin, scutellarin] | 40400 ng/mL
CC(C)OC(=O)CCC/C=C\C[C@@H]1[C@@H](/C=C/C(F)(F)COc2ccccc2)[C@H](O)C[C@@H]1O [Tafluprost, tafluprost] | 14600 ng/mL

Same assay, conditions: binary system with 0.5% polymer 103; incubation 3 h

Structure (SMILES) | Concentration of the target in the solution measured after different incubation time
O=C(O)[C@H]1O[C@@H](Oc2cc3oc(-c4ccc(O)cc4)cc(=O)c3c(O)c2O)[C@H](O)[C@@H](O)[C@@H]1O [Scutellarin, scutellarin] | 42800 ng/mL
CC(C)OC(=O)CCC/C=C\C[C@@H]1[C@@H](/C=C/C(F)(F)COc2ccccc2)[C@H](O)C[C@@H]1O [Tafluprost, tafluprost] | 23100 ng/mL

Same assay, conditions: binary system with 0.5% polymer 103; incubation 6 h

Structure (SMILES) | Concentration of the target in the solution measured after different incubation time
O=C(O)[C@H]1O[C@@H](Oc2cc3oc(-c4ccc(O)cc4)cc(=O)c3c(O)c2O)[C@H](O)[C@@H](O)[C@@H]1O [Scutellarin, scutellarin] | 42800 ng/mL
CC(C)OC(=O)CCC/C=C\C[C@@H]1[C@@H](/C=C/C(F)(F)COc2ccccc2)[C@H](O)C[C@@H]1O [Tafluprost, tafluprost] | 27400 ng/mL

Same assay, conditions: binary system with 0.5% polymer 104; incubation 0.5 h

Concentration of the target in the solution measured after different incubation time | Structure (SMILES)
26700 ng/mL | CC(C)OC(=O)CCC/C=C\C[C@@H]1[C@@H](/C=C/C(F)(F)COc2ccccc2)[C@H](O)C[C@@H]1O [Tafluprost, tafluprost]

Same assay, conditions: binary system with 0.5% polymer 104; incubation 3 h

Concentration of the target in the solution measured after different incubation time | Structure (SMILES)
24200 ng/mL | CC(C)OC(=O)CCC/C=C\C[C@@H]1[C@@H](/C=C/C(F)(F)COc2ccccc2)[C@H](O)C[C@@H]1O [Tafluprost, tafluprost]

Same assay, conditions: binary system with 0.5% polymer 104; incubation 6 h

Concentration of the target in the solution measured after different incubation time | Structure (SMILES)
17300 ng/mL | CC(C)OC(=O)CCC/C=C\C[C@@H]1[C@@H](/C=C/C(F)(F)COc2ccccc2)[C@H](O)C[C@@H]1O [Tafluprost, tafluprost]

Same assay, conditions: binary system with 0.5% polymer 106; incubation 0.5 h

Structure (SMILES) | Concentration of the target in the solution measured after different incubation time
O=C(O)[C@H]1O[C@@H](Oc2cc3oc(-c4ccc(O)cc4)cc(=O)c3c(O)c2O)[C@H](O)[C@@H](O)[C@@H]1O [Scutellarin, scutellarin] | 57400 ng/mL

Same assay, conditions: binary system with 0.5% polymer 106; incubation 3 h

Structure (SMILES) | Concentration of the target in the solution measured after different incubation time
O=C(O)[C@H]1O[C@@H](Oc2cc3oc(-c4ccc(O)cc4)cc(=O)c3c(O)c2O)[C@H](O)[C@@H](O)[C@@H]1O [Scutellarin, scutellarin] | 60800 ng/mL

Same assay, conditions: binary system with 0.5% polymer 106; incubation 6 h

Structure (SMILES) | Concentration of the target in the solution measured after different incubation time
O=C(O)[C@H]1O[C@@H](Oc2cc3oc(-c4ccc(O)cc4)cc(=O)c3c(O)c2O)[C@H](O)[C@@H](O)[C@@H]1O [Scutellarin, scutellarin] | 54300 ng/mL

Same assay, conditions: binary system with 0.5% polymer 107; incubation 0.5 h

Structure (SMILES) | Concentration of the target in the solution measured after different incubation time
O=C(O)[C@H]1O[C@@H](Oc2cc3oc(-c4ccc(O)cc4)cc(=O)c3c(O)c2O)[C@H](O)[C@@H](O)[C@@H]1O [Scutellarin, scutellarin] | 61700 ng/mL
CC(C)OC(=O)CCC/C=C\C[C@@H]1[C@@H](/C=C/C(F)(F)COc2ccccc2)[C@H](O)C[C@@H]1O [Tafluprost, tafluprost] | 34500 ng/mL

Same assay, conditions: binary system with 0.5% polymer 107; incubation 3 h

Structure (SMILES) | Concentration of the target in the solution measured after different incubation time
O=C(O)[C@H]1O[C@@H](Oc2cc3oc(-c4ccc(O)cc4)cc(=O)c3c(O)c2O)[C@H](O)[C@@H](O)[C@@H]1O [Scutellarin, scutellarin] | 41700 ng/mL
CC(C)OC(=O)CCC/C=C\C[C@@H]1[C@@H](/C=C/C(F)(F)COc2ccccc2)[C@H](O)C[C@@H]1O [Tafluprost, tafluprost] | 36800 ng/mL

Same assay, conditions: binary system with 0.5% polymer 107; incubation 6 h

Structure (SMILES) | Concentration of the target in the solution measured after different incubation time
O=C(O)[C@H]1O[C@@H](Oc2cc3oc(-c4ccc(O)cc4)cc(=O)c3c(O)c2O)[C@H](O)[C@@H](O)[C@@H]1O [Scutellarin, scutellarin] | 43100 ng/mL
CC(C)OC(=O)CCC/C=C\C[C@@H]1[C@@H](/C=C/C(F)(F)COc2ccccc2)[C@H](O)C[C@@H]1O [Tafluprost, tafluprost] | 35200 ng/mL

Same assay, conditions: binary system with 0.5% polymer 110; incubation 0.5 h

Structure (SMILES) | Concentration of the target in the solution measured after different incubation time
O=C(O)[C@H]1O[C@@H](Oc2cc3oc(-c4ccc(O)cc4)cc(=O)c3c(O)c2O)[C@H](O)[C@@H](O)[C@@H]1O [Scutellarin, scutellarin] | 95900 ng/mL

Same assay, conditions: binary system with 0.5% polymer 110; incubation 3 h

Structure (SMILES) | Concentration of the target in the solution measured after different incubation time
O=C(O)[C@H]1O[C@@H](Oc2cc3oc(-c4ccc(O)cc4)cc(=O)c3c(O)c2O)[C@H](O)[C@@H](O)[C@@H]1O [Scutellarin, scutellarin] | 87300 ng/mL

Same assay, conditions: binary system with 0.5% polymer 110; incubation 6 h

Structure (SMILES) | Concentration of the target in the solution measured after different incubation time
O=C(O)[C@H]1O[C@@H](Oc2cc3oc(-c4ccc(O)cc4)cc(=O)c3c(O)c2O)[C@H](O)[C@@H](O)[C@@H]1O [Scutellarin, scutellarin] | 78300 ng/mL

Same assay, conditions: binary: 0.25% 102H; 6 h

Concentration of guest molecule in solution | Structure (SMILES)
67300 ng/mL | CC(C)OC(=O)CCC/C=C\C[C@@H]1[C@@H](/C=C/C(F)(F)COc2ccccc2)[C@H](O)C[C@@H]1O [Tafluprost, tafluprost]
